PubChem BioAssay AID687005 (Broad Institute, 2013)
Records with an inconclusive call do not appear. Activity calls are given as the source filed them.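 The calls were made as follows: active = Compounds that reduce signal, with fitted half-maximal dose at or under twice the top valid tested dose; inconclusive = Poor fit, or flat curve losing 30 to 70% of signal; inactive = Potency past limit, flat within 30%, or opposite direction.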

Test: viability loss in HEK293T cells – cell-based, ATP luminescence, cherry-pick samples, cytotoxicity control, dose response (AID 687005)
Details: HEK293T viability, ATP luminescence (CellTiter-Glo), 48 h

SMILES	activity change, negative = cytotoxicity (at 26 µM (top of the series))	further results
C[C@H]1CN([C@@H](C)CO)C(=O)c2cc(NC(=O)Nc3ccc4c(c3)OCO4)ccc2O[C@@H]1CN(C)CC1CCCCC1		activity change, negative = cytotoxicity (at 23.5 µM (top of the series)): -55.7% (inactive)
C[C@@H]1CN([C@H](C)CO)C(=O)c2cc(NC(=O)Nc3cccc4ccccc34)ccc2O[C@H]1CN(C)C(=O)Nc1ccc(C(F)(F)F)cc1		activity change, negative = cytotoxicity (at 23.5 µM (top of the series)): -31% (inactive)
CCNC(=O)Nc1ccc2c(c1)C(=O)N(C)[C@@H]1CC[C@H](CC(=O)N[C@@H](C)c3ccccc3)O[C@@H]1CO2	66.2% (inactive)	
O=C(COc1ccc2c(c1)CCC2)NCc1ccc(Cl)cc1	18.5% (inactive)	
O=C(C[C@@H]1C[C@@H]2c3cc(NC(=O)Nc4ccc(F)cc4)ccc3O[C@@H]2[C@@H](CO)O1)NCC1CC1		activity change, negative = cytotoxicity (at 23.5 µM (top of the series)): 26.7% (inactive)
O=C(C[C@@H]1CC[C@@H](NC(=O)c2cccnc2)[C@@H](CO)O1)NCCN1CCCCC1	-2.13% (inactive)	
COc1ccc(NC(=O)N(C)C[C@H]2OCCCC[C@@H](C)Oc3ccc(NC(=O)c4ccccc4)cc3C(=O)N([C@H](C)CO)C[C@H]2C)cc1	-27.5% (inactive)	
C[C@@H]1CN([C@@H](C)CO)C(=O)c2cc(NC(=O)Nc3ccc4c(c3)OCO4)ccc2O[C@H]1CN(C)Cc1ccc(Oc2ccccc2)cc1		activity change, negative = cytotoxicity (at 23.5 µM (top of the series)): -38.4% (inactive)
Cc1ccc(C)c(NC(=O)C2(C)CCCN2C(=O)C(C)C)c1 (stereo not drawn)		activity change, negative = cytotoxicity (at 42 µM (top of the series)): -23.6% (inactive)
CC(C)CC#Cc1ccc2c(c1)O[C@@H](CN(C)C(=O)C1CCC1)[C@@H](C)CN([C@H](C)CO)S2(=O)=O	1.96% (inactive)	
NC(=O)NCC#Cc1ccc2c(c1)[C@]1(C(=O)N2)[C@H](C(N)=O)[C@H]2C(=O)O[C@H](c3ccccc3)[C@H](c3ccccc3)N2[C@@H]1c1ccccc1OCCO	-5.26% (inactive)	
COC(=O)C1=C(C)N(Cc2ccc(Cl)cc2)C(=S)NC1c1cccc(OC)c1 (stereo not drawn)	-34.3% (inactive)	
COc1ccccc1C(=O)Nc1ccc2c(c1)C(=O)N(C)C[C@@H](OC)[C@H](C)CN(C)[C@@H](C)CO2	0.103% (inactive)	
O=C([C@H]1[C@H](CO)[C@H]2Cn3c(cccc3=O)[C@@H]1N2Cc1cccc(Cl)c1)N1CCOCC1	-20.6% (inactive)	
CNC[C@@H]1OCCCC[C@@H](C)Oc2ccc(NC(=O)NC(C)C)cc2C(=O)N([C@@H](C)CO)C[C@H]1C	34.5% (inactive)	
CNC(=O)C[C@H]1CC[C@H]2[C@@H](COc3ccc(NC(=O)Nc4ccccc4)cc3C(=O)N2C)O1	7.97% (inactive)	
CCC(=O)Nc1ccc2c(c1)C(=O)N(C)C[C@H](OC)[C@@H](C)CN[C@H](C)CO2	29.1% (inactive)	
O=C(c1ccco1)N1N=C(c2cccs2)CC1c1ccc(F)cc1 (stereo not drawn)	-39% (inactive)	
Cc1noc(C)c1S(=O)(=O)Nc1ccc2c(c1)C(=O)N([C@H](C)CO)C[C@@H](C)[C@H](CN(C)Cc1ccccc1)OCCCC[C@H](C)O2	-2.05% (inactive)	
C[C@@H]1CN([C@H](C)CO)C(=O)c2cc(NS(=O)(=O)c3cn(C)cn3)ccc2O[C@@H](C)CCCCO[C@H]1CN(C)C	21.8% (inactive)	
CC(C)NC(=O)Nc1ccc2c(c1)CC(=O)N([C@@H](C)CO)C[C@@H](C)[C@@H](CN(C)Cc1ccc(Oc3ccccc3)cc1)O2	-58.4% (inactive)	

SMILES	activity change, negative = cytotoxicity (at 26 µM (top of the series))	further results
C[C@@H]1CN([C@H](C)CO)C(=O)CCCn2cc(nn2)CO[C@@H]1CN(C)C(=O)CCCN(C)C	-5.89% (inactive)	
COC(=O)C1=C(C)N(Cc2ccccc2)C(=S)NC1c1ccc(Br)cc1 (stereo not drawn)		activity change, negative = cytotoxicity (at 23.5 µM (top of the series)): -9.89% (inactive)
N#Cc1ccc(-c2ccc3c(c2)[C@H]2[C@H](CCN2C(=O)Cc2ccccc2)[C@@H](CO)N3)cc1		activity change, negative = cytotoxicity (at 23.5 µM (top of the series)): -73.4% (inactive)
C[C@H](CO)N1C[C@H](C)[C@@H](CN(C)Cc2ccc(Oc3ccccc3)cc2)Oc2ccc(NS(=O)(=O)c3cn(C)cn3)cc2CC1=O	-30.9% (inactive)	
Cc1noc(C)c1S(=O)(=O)Nc1ccc2c(c1)CC(=O)N([C@H](C)CO)C[C@H](C)[C@@H](CN(C)S(=O)(=O)c1cn(C)cn1)O2	-28.7% (inactive)	
CNC(=O)CN(c1ccccc1)S(=O)(=O)c1ccc(F)cc1		activity change, negative = cytotoxicity (at 28.5 µM (top of the series)): -7.63% (inactive)
CNC[C@H]1OCCCC[C@H](C)Oc2ccc(NC(=O)Cc3ccccc3)cc2C(=O)N([C@H](C)CO)C[C@@H]1C	-17.1% (inactive)	
CC(=O)c1cccc(NC(=S)NC2CCCCCCC2)c1	-21.5% (inactive)	
CNC(=O)CN(c1ccc(C)cc1)S(=O)(=O)c1ccccc1		activity change, negative = cytotoxicity (at 30 µM (top of the series)): -17.7% (inactive)
O=C(COc1ccc2c(c1)CCC2)NCc1ccccc1	1.59% (inactive)	
CCC(=O)N1[C@@H]2Cn3c(ccc(C4=CCCCC4)c3=O)[C@H]1[C@@H](C(=O)N[C@H](C)c1ccccc1)[C@@H]2CO	-16.5% (inactive)	
COc1ccccc1CNC(=O)C[C@@H]1C[C@@H]2c3cc(NC(=O)Nc4ccccc4F)ccc3O[C@@H]2[C@H](CO)O1	15.8% (inactive)	
COCCNC(=O)C[C@@H]1CC[C@@H]2[C@H](COC[C@@H](O)CN2S(=O)(=O)c2ccccc2C)O1	31.5% (inactive)	
C[C@H]1CN([C@@H](C)CO)C(=O)c2ccccc2-c2ccccc2CO[C@H]1CN(C)S(=O)(=O)c1cccc(C#N)c1	-8.25% (inactive)	
COc1ccc(NC(=O)N(C)C[C@H]2OCCCC[C@H](C)Oc3ccc(NC(=O)C4CCCCC4)cc3C(=O)N([C@@H](C)CO)C[C@@H]2C)cc1	-27.2% (inactive)	
Cc1cc(C(=O)Nc2ccc3c(c2)C(=O)N(C)[C@@H]2CC[C@@H](CC(=O)N[C@@H](C)c4ccccc4)O[C@@H]2CO3)no1	-33.4% (inactive)	
C[C@H]1CN([C@@H](C)CO)C(=O)c2cccc(NS(=O)(=O)c3cn(C)cn3)c2O[C@@H]1CN(C)CC1CCCCC1	-5.42% (inactive)	
O=C(N[C@H]1CC[C@H](CCn2cc(-c3ccccn3)nn2)O[C@H]1CO)c1ccc(F)cc1	-9.35% (inactive)	
Cc1ccc(S(=O)(=O)N[C@@H]2CCCN(Cc3cccc(OCCO)c3)C2)cc1		activity change, negative = cytotoxicity (at 21 µM (top of the series)): 0.167% (inactive)
Cc1cc(C)cc(OCC(=O)NC(C)c2ccccc2)c1 (stereo not drawn)	14.9% (inactive)	
COc1ccc(NC(=O)CSc2ncnc3c2cnn3CCc2ccccc2)cc1	-33.3% (inactive)	

SMILES	activity change, negative = cytotoxicity (at 26 µM (top of the series))	further results
O=C(NC1CCCCC1)N[C@@H]1CC[C@@H](CCNS(=O)(=O)c2ccc(Cl)cc2)O[C@H]1CO	45.5% (inactive)	
C/C=C/c1ccc([C@H]2[C@@H](C#N)N(S(=O)(=O)c3cccc(F)c3)[C@H]2CO)cc1		activity change, negative = cytotoxicity (at 23.5 µM (top of the series)): 7.73% (inactive)
C[C@@H]1CCCCO[C@H](CN(C)Cc2ccncc2)[C@@H](C)CN([C@@H](C)CO)C(=O)c2cc(NC(=O)Nc3ccccc3)ccc2O1	-7.38% (inactive)	
COc1ccccc1-c1cnc2c(c1)C(=O)N([C@H](C)CO)C[C@@H](C)[C@H](CN(C)Cc1cncnc1)O2	28.4% (inactive)	
CC(C)CC#Cc1cnc2c(c1)C(=O)N([C@H](C)CO)C[C@H](C)[C@H](CN(C)C(=O)c1cccnc1)O2	-8.15% (inactive)	
C[C@@H]1CN([C@@H](C)CO)C(=O)c2cc(-c3ccc(C#N)cc3)cnc2O[C@@H]1CN(C)C(=O)Nc1ccc(F)cc1	5.67% (inactive)	
CCC(=O)N1CCC1(C)C(=O)Nc1ccc(C)c(C)c1 (stereo not drawn)	-11.7% (inactive)	
C[C@@H]1CN([C@@H](C)CO)C(=O)c2cc(NC(=O)C3CC3)ccc2O[C@H]1CN(C)CC1CCCCC1	-17.8% (inactive)	
CCCNC(=O)[C@@H]1[C@@H](CO)[C@@H]2Cn3c(cccc3=O)[C@H]1N2C(=O)Nc1cc(F)ccc1F		activity change, negative = cytotoxicity (at 23.5 µM (top of the series)): 27.4% (inactive)
Cc1cccc(NC(=S)NN(Cc2ccccc2)c2ccccc2)c1C	25.3% (inactive)	
O=C(C[C@@H]1CC[C@H](NC(=O)Cc2ccccn2)[C@H](CO)O1)NCCc1ccccc1	-2.62% (inactive)	
COc1cccc(S(=O)(=O)N(C)C[C@H]2OCc3cnnn3CCCC(=O)N([C@H](C)CO)C[C@H]2C)c1	38.2% (inactive)	
CC(C)NC(=O)N[C@H]1CC[C@@H](CCNC(=O)C2CC2)O[C@H]1CO	6.21% (inactive)	
CCC(=O)N1CCCC1(C)C(=O)Nc1ccc(C)c(C)c1 (stereo not drawn)		activity change, negative = cytotoxicity (at 42 µM (top of the series)): -1.9% (inactive)
CN1C(=O)c2cc(NC(=O)Nc3ccc(Cl)cc3)ccc2OC[C@H]2O[C@@H](CC(=O)NCCN3CCCCC3)CC[C@@H]21	36.5% (inactive)	
CO[C@@H]1CN(C)C(=O)c2ccc(NC(=O)NC(C)C)cc2OC[C@H](C)NC[C@@H]1C	-4.93% (inactive)	
C/C=C/c1cnc2c(c1)C(=O)N([C@@H](C)CO)C[C@@H](C)[C@@H](CN(C)C(=O)C1CCCCC1)O2	10.3% (inactive)	
C[C@H](CO)N1C[C@H](C)[C@H](CN(C)C(=O)Nc2cccc3ccccc23)Oc2ccc(NC(=O)Nc3ccccc3)cc2C1=O	2.5% (inactive)	
C[C@H](CO)N1C[C@H](C)[C@H](CN(C)CC2CCCCC2)Oc2c(NS(C)(=O)=O)cccc2C1=O	32.2% (inactive)	
C[C@@H]1CCCCO[C@@H](CN(C)C(=O)Nc2ccc3c(c2)OCO3)[C@@H](C)CN([C@H](C)CO)C(=O)c2cc(NC(=O)Nc3cccc4ccccc34)ccc2O1		activity change, negative = cytotoxicity (at 23.5 µM (top of the series)): -9.79% (inactive)
CC(C)NC(=O)NCC[C@H]1CC[C@H](NC(=O)CN(C)C)[C@H](CO)O1	7.79% (inactive)	
